Experimental data taken from publication PMC9329436, “Optimization of the 4-anilinoquin(az)oline scaffold as epidermal growth factor receptor (EGFR) inhibitors for chordoma utilizing a toxicology profiling assay platform” (Scientific Reports, 2022).

Experiments:
Assay in all cases: 33PanQinase activity assay
Type in all cases: biochemical
PIM1 = PIM1 (Homo sapiens, UniProt P11309); details: for Residual activity: singlicate
From the text: (§1) Table S4. Profiling of two compounds at two concentrations against 320 wild-type protein kinases; singlicate measurement; Residual activities (% of control).

MKNK1 = MKNK1 (Homo sapiens, UniProt Q9BUB5); details: for Residual activity: singlicate
Sequence of MKNK1 (Q9BUB5 whole entry): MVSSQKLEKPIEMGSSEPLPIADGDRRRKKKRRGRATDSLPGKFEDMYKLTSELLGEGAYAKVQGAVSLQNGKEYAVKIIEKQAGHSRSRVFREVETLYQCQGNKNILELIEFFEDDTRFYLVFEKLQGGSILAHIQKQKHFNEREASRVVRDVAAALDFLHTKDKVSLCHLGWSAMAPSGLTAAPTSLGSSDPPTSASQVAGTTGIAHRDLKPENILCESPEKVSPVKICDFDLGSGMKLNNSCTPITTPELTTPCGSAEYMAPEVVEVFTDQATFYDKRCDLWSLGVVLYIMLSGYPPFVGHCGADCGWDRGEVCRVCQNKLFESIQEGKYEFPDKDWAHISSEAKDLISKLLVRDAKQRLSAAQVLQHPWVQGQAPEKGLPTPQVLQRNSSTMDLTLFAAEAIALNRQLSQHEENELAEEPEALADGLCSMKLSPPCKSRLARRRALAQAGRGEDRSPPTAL
From the text: as §1

LCK = LCK (Homo sapiens, UniProt P06239); details: for Residual activity: LCK, singlicate
From the text: as §1

NIK = NIK (Homo sapiens, UniProt Q99558); details: for Residual activity: NIK, singlicate
Sequence of NIK (Q99558 whole entry): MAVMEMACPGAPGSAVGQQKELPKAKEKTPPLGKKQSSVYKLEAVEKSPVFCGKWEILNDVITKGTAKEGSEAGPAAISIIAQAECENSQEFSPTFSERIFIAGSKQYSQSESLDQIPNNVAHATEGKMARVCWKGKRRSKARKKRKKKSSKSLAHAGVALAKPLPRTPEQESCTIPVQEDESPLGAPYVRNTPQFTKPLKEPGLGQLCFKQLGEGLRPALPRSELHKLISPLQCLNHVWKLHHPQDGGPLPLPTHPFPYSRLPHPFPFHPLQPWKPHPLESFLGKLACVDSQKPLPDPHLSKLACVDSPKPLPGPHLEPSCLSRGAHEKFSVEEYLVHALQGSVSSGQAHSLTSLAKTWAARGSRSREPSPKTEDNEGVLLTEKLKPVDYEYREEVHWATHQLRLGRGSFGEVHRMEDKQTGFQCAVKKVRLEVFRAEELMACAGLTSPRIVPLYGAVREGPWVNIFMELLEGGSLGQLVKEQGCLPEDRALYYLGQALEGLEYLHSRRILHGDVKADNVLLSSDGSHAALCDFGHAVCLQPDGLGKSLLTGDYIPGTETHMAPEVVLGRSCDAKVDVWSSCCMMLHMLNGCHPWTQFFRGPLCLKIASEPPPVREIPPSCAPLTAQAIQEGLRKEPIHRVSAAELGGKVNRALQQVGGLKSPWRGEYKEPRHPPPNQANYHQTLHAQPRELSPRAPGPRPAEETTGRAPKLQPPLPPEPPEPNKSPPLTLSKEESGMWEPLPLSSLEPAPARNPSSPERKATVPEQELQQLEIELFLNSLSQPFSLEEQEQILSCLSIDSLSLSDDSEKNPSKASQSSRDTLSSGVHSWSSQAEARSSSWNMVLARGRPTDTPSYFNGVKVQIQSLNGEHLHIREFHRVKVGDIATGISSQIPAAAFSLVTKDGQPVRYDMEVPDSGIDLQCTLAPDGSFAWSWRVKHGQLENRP
From the text: as §1

EGFR = EGFR (Homo sapiens, UniProt P00533); details: for Residual activity: EGF-R, singlicate
Sequence of EGFR (P00533 25-1210): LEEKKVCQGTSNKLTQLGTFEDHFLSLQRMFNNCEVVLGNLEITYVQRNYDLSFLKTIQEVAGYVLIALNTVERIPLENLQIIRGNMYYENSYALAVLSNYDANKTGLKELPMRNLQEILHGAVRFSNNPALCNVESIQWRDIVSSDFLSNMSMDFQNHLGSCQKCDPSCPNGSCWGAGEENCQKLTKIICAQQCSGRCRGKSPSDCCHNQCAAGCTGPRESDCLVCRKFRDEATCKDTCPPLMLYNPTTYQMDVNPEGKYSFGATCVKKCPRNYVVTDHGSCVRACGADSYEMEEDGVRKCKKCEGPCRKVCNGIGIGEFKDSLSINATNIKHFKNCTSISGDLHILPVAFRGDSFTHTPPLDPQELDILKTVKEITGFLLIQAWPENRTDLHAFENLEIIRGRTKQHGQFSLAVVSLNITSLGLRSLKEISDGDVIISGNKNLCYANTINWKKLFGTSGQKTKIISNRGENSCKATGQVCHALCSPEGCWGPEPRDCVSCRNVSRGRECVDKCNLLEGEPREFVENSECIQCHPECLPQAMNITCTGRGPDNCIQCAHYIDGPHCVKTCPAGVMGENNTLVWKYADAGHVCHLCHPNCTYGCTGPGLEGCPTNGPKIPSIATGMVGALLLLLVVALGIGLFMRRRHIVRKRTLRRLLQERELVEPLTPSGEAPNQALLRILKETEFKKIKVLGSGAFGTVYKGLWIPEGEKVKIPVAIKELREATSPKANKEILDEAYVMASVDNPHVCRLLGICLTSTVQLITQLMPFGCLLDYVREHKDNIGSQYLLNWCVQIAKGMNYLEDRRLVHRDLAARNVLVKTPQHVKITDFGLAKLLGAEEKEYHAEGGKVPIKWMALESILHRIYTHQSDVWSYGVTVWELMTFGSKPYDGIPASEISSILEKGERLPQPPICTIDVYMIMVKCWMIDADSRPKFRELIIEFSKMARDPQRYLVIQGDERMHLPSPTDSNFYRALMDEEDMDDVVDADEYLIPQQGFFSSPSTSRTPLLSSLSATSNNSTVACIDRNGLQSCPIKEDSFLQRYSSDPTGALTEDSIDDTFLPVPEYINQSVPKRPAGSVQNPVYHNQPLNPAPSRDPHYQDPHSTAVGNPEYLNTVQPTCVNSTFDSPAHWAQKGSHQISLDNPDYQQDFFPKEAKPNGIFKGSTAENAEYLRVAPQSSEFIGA
From the text: as §1

EPHB2 = target: T1, EPHB2 (Homo sapiens, UniProt P29323); details: for Residual activity: singlicate
T1 sequence (P29323 19-1055): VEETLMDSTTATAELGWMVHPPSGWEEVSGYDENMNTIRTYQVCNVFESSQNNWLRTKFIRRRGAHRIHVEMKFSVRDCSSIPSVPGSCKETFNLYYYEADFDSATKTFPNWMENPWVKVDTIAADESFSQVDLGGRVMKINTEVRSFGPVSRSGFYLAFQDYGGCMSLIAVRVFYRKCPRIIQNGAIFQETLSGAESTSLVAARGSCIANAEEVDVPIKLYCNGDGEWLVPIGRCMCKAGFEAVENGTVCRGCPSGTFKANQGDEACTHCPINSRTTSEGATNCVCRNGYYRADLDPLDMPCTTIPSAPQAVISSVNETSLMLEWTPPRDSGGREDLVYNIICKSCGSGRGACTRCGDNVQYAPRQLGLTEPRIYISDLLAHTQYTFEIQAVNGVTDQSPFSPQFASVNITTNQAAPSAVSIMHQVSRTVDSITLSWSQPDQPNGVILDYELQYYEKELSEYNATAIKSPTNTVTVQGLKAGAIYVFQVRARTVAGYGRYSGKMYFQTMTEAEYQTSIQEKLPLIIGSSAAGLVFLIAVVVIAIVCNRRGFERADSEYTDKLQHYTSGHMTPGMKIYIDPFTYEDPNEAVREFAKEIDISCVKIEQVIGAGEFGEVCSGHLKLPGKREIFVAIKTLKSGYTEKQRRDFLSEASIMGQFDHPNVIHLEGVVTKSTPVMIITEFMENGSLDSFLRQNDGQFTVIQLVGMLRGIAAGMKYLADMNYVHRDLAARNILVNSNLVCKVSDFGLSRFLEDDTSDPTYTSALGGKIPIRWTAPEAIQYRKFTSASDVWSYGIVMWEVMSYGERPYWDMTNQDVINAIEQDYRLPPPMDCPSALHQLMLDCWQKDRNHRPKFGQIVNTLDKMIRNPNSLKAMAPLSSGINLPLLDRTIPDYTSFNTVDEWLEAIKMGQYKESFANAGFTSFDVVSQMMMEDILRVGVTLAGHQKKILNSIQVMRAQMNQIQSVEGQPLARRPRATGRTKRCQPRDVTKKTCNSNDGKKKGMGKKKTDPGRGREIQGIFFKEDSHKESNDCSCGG
From the text: as §1

Aurora-C = target: T2, Aurora-C (Homo sapiens, UniProt Q9UQB9); details: for Residual activity: Aurora-C, singlicate
T2 sequence (Q9UQB9 1-309): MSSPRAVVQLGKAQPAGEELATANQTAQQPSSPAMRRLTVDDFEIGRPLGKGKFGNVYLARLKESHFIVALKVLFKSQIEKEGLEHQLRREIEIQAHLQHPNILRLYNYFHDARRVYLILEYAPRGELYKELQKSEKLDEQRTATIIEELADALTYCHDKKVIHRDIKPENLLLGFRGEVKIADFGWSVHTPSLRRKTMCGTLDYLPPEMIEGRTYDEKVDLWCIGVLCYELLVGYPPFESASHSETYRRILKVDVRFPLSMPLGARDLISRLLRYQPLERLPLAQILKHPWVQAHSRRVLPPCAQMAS
From the text: as §1

SLK = SLK (Homo sapiens, UniProt Q9H2G2); details: for SLK inhibition: 10 μM; for Residual activity, SLK: kinase SLK, singlicate
Sequence of SLK (Q9H2G2 whole entry): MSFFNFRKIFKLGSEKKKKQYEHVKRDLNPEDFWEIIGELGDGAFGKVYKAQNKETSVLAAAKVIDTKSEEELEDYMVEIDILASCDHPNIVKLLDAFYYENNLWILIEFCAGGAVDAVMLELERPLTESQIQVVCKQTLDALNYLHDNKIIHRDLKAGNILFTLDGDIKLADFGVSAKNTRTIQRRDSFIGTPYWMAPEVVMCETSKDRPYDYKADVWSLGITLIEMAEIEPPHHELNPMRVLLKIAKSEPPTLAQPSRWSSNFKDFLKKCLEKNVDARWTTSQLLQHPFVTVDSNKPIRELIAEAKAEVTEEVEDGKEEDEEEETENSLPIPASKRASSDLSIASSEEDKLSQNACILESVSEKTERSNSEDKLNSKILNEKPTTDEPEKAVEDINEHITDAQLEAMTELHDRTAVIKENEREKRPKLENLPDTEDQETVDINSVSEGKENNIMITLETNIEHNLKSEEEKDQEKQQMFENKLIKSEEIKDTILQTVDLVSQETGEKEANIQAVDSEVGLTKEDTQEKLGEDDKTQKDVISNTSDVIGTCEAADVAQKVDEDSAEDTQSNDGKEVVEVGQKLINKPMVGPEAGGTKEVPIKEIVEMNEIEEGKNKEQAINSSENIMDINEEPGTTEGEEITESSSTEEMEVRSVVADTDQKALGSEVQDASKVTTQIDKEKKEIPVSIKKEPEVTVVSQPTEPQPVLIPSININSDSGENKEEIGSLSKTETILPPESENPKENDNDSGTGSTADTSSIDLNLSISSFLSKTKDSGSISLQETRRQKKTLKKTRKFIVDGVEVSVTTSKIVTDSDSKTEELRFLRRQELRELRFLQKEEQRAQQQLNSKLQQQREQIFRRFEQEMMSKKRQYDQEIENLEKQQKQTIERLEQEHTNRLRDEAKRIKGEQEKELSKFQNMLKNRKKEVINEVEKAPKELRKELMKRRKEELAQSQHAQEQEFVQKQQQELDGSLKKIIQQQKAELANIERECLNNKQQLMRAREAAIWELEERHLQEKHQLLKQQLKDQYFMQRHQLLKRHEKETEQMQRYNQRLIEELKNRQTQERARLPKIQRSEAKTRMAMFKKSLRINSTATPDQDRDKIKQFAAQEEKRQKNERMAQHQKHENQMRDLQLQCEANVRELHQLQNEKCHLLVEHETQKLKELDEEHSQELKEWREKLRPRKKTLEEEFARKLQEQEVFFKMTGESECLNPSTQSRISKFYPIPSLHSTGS
From the text: as §1

RIPK2 = RIPK2 (Homo sapiens, UniProt O43353); details: for Residual activity, RIPK2: kinase RIPK2, singlicate
Sequence of RIPK2 (O43353 whole entry): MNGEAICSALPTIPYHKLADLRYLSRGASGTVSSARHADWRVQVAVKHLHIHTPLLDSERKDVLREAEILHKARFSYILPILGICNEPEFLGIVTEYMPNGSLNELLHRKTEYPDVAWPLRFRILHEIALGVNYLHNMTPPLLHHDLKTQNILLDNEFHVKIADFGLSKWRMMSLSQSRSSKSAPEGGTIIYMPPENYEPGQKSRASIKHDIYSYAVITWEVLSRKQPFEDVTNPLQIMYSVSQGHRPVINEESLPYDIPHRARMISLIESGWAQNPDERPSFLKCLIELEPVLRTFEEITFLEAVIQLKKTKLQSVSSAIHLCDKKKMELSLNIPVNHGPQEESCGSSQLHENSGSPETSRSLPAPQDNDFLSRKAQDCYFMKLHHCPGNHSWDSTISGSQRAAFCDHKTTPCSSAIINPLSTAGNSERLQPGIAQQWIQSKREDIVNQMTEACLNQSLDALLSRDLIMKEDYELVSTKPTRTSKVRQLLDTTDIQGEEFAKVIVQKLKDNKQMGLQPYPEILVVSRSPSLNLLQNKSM
From the text: as §1

Aurora-B = Aurora-B (Homo sapiens, UniProt Q96GD4); details: for Residual activity: Aurora-B, singlicate
Sequence of Aurora-B (Q96GD4 whole entry): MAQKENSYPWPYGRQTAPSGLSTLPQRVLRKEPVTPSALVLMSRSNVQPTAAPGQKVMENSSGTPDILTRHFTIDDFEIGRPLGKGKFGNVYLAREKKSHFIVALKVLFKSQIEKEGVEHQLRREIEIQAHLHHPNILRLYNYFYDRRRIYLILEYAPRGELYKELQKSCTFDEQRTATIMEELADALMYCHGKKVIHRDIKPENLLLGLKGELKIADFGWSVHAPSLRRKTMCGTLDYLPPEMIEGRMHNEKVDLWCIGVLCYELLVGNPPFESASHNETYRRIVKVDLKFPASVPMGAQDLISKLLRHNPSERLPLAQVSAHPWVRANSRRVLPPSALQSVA
From the text: as §1

Sequence of PIM1 (P11309 whole entry): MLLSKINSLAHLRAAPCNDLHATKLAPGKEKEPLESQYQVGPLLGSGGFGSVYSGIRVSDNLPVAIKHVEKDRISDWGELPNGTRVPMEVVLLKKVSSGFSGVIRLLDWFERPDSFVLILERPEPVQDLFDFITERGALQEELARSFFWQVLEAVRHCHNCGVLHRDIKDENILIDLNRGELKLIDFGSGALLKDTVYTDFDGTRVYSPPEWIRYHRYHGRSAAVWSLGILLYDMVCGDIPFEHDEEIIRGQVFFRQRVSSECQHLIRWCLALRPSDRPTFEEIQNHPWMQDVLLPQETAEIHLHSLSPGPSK

Structure (SMILES)	Residual activity (PIM1; PIM1, 1.0E-06 M)	Residual activity (PIM1; PIM1, 1.0E-07 M)	Residual activity (MKNK1; MKNK1, 1.0E-06 M)	Residual activity (MKNK1; MKNK1, 1.0E-07 M)	Residual activity (LCK; 1.0E-06 M)	Residual activity (LCK; 1.0E-07 M)	Residual activity (NIK; 1.0E-06 M)	Residual activity (NIK; 1.0E-07 M)	EGFR inhibition (EGFR; 1 μM)	EGFR inhibition (EGFR; 10 μM)	Residual activity (EGFR; 1.0E-06 M)	Residual activity (EGFR; 1.0E-07 M)	Residual activity (EPHB2; EPHB2, 1.0E-06 M)	Residual activity (EPHB2; EPHB2, 1.0E-07 M)	Residual activity (Aurora-C; 1.0E-06 M)	Residual activity (Aurora-C; 1.0E-07 M)	SLK inhibition (SLK)	Residual activity, SLK (SLK; assay conc. 1.0E-06 M)	Residual activity, SLK (SLK; assay conc. 1.0E-07 M)	Residual activity, RIPK2 (RIPK2; assay conc. 1.0E-06 M)	other results
C#Cc1cc(Nc2ncnc3cc(I)ccc23)ccc1Cl [Compound 41]	71 % of control	85 % of control	63 % of control	79 % of control	59 % of control	78 % of control	120 % of control	126 % of control	> 50%	> 50%	8 % of control	28 % of control	58 % of control	79 % of control	70 % of control	89 % of control	> 50%	32 % of control	67 % of control	96 % of control	Residual activity, RIPK2 (RIPK2; assay conc. 1.0E-07 M): 107 % of control; Aurora-B inhibition (Aurora-B; 10 μM): > 50%; Residual activity (Aurora-B; 1.0E-06 M): 30 % of control; Residual activity (Aurora-B; 1.0E-07 M): 75 % of control
C#Cc1cc(Nc2ncnc3cc(OC)c(OC)cc23)ccc1Cl [Compound 45]	38 % of control	73 % of control	30 % of control	63 % of control	36 % of control	94 % of control	122 % of control	127 % of control	> 50%	> 50%	0 % of control	2 % of control	11 % of control	50 % of control	85 % of control	98 % of control	> 50%	18 % of control	76 % of control	13 % of control	PIM1 inhibition (PIM1; 10 μM): > 50%; MKNK1 inhibition (MKNK1; 10 μM): > 50%; LCK inhibition (LCK; 10 μM): > 50%; NIK inhibition (NIK; 10 μM): > 50%; EPHB2 inhibition (EPHB2; 10 μM): > 50%; Aurora-C inhibition (Aurora-C; 10 μM): > 50%; RIPK2 inhibition (RIPK2; 10 μM): > 50%; Residual activity, RIPK2 (RIPK2; assay conc. 1.0E-07 M): 59 % of control; Residual activity (Aurora-B; 1.0E-06 M): 43 % of control; Residual activity (Aurora-B; 1.0E-07 M): 91 % of control
